Data published in paper PMC8351955, “Targeting Mycobacterium tuberculosis response to environmental cues for the development of effective antitubercular drugs” (PLoS Biology, 2021).
Where two headings read alike, the source gives them in different places.

Legend:
[1] = system: CDC1551(rv2390c′::GFP) reporter Mtb strain, response to high [Cl−]; assay: microbe, parasite or virus in culture; type: cell-based, Mycobacterium tuberculosis; details: Mycobacterium tuberculosis, 144 h; for activity at 20 µM: read-out: rv2390c'::GFP validation assay NPA% at 20 µM compound
[2] = system: CDC1551(rv1405c′::GFP) reporter Mtb strain; assay: microbe, parasite or virus in culture; type: cell-based, Mycobacterium tuberculosis; details: Mycobacterium tuberculosis; for activity at 10 µM: read-out: rv1405c'::GFP secondary assay NPA% at 10 µM compound; for activity at 20 µM: read-out: rv1405c'::GFP secondary assay NPA% at 20 µM compound
[3] = pH 6.4, […], DMSO positive control = 100%, read-out: Primary screen rv2390c'::GFP NPA%
[4] = 10 µM, pH 6.4, 250 mM NaCl, 6 days, read-out: rv2390c'::GFP validation assay NPA% at 10 µM compound

Row | SMILES | activity at 10 µM [1, 3] | activity at 10 µM [1, 4] | activity at 20 µM ([1]; pH 6.4, 250 mM NaCl, 6 days) | activity at 10 µM [2] | activity at 20 µM [2]
1 | Cc1ccccc1OCC(=O)NCc1ccc(C)n1C [RU-0272839, CN1C(C)=CC=C1CNC(=O)COC1=C(C)C=CC=C1] | 215% | 161 ± 13.6% | 204 ± 5.5% | 93 ± 7.6% | 104 ± 5.9%
2 | COc1ccc(OC)c(C2CCCN2C(=O)NCc2cccs2)c1 (stereo not shown) [RU-0273525, COC1=CC(C2CCCN2C(=O)NCC2=CC=CS2)=C(OC)C=C1] | 150% | 158 ± 14.1% | 232 ± 6.9% | 119 ± 11.1% | 184 ± 6.5%
3 | CCOc1cc(F)ccc1NC(=O)Nc1cccc(C#N)c1 [RU-0273629, CCOC1=C(NC(=O)NC2=CC(=CC=C2)C#N)C=CC(F)=C1] | 170% | 203 ± 16.4% | 318 ± 21.4% | 188 ± 18% | 540 ± 65.6%
4 | Cc1cc(NS(=O)(=O)Cc2cccc(C(F)(F)F)c2)n(C)n1 [RU-0274447, CN1N=C(C)C=C1NS(=O)(=O)CC1=CC(=CC=C1)C(F)(F)F] | 186% | 171 ± 11.2% | 252 ± 10.1% | 303 ± 7.6% | 619 ± 9.2%
5 | CCc1nnc(NC(=O)c2sc(CC(C)C)nc2C)s1 [RU-0274734, CCC1=NN=C(NC(=O)C2=C(C)N=C(CC(C)C)S2)S1] | 170% | 150.7 ± 1.2% | 178 ± 7.2% | 97.2 ± 4.2% | 102 ± 3.9%
6 | Cc1ccc(NC(=O)c2cc(C)n(C3CC3)c2C)c(C)c1 [RU-0276186, CC1=CC(C(=O)NC2=C(C)C=C(C)C=C2)=C(C)N1C1CC1] | 159% | 105 ± 5.3% | 157 ± 13.8% | 95.4 ± 4.5% | 123 ± 13.3%
7 | CCc1ccc(NC(=O)C2(N(C)C)Cc3ccccc3C2)cc1 [RU-0276433, CCC1=CC=C(NC(=O)C2(CC3=C(C2)C=CC=C3)N(C)C)C=C1] | 157% | 124 ± 10.1% | 186 ± 4.9% | 171 ± 9.3% | 312 ± 25.3%
8 | CC(C)(C)n1cc(C#N)c(NS(=O)(=O)c2cccc(F)c2)n1 [RU-0277089, CC(C)(C)N1C=C(C#N)C(NS(=O)(=O)C2=CC(F)=CC=C2)=N1] | 45.4% | 51.2 ± 5.5% | 28.2 ± 0.7% | 43.2 ± 4.1% | 17.4 ± 5.4%
9 | COc1ccc(COc2ccccc2NC(C)=O)cc1Br [RU-0277875, COC1=C(Br)C=C(COC2=C(NC(C)=O)C=CC=C2)C=C1] | 175% | 138 ± 7.5% | 229 ± 11.9% | 139 ± 5.6% | 199 ± 12.2%
10 | CC(C)c1cc(C(=O)NC2CCN(c3cccc(F)c3)CC2)n[nH]1 [RU-0278450, CC(C)C1=CC(=NN1)C(=O)NC1CCN(CC1)C1=CC(F)=CC=C1] | 175% | 118 ± 5.7% | 231 ± 1% | 92.3 ± 5.3% | 146 ± 5.1%
11 | Cn1cc(CCC(=O)Nc2ccc3c(c2)S(=O)(=O)C=C3)cn1 [RU-0278569, CN1C=C(CCC(=O)NC2=CC3=C(C=CS3(=O)=O)C=C2)C=N1] | 47.1% | 80.9 ± 7.4% | 63.4 ± 5.6% | 74.5 ± 5.4% | 76.5 ± 4.9%
